Here are results for eight molecules from patent publication US6492399B1, “Pharmaceutical compositions and methods for use” (Targacept, Inc., priority 1998, dated 2002).

Molecules are shown by their SMILES.

Common to all, as to format: biochemical
One assay has as its system dopamine release. The assay can be described thus: Determination of dopamine release. Particulars: amount released relative to (S)-(-)-nicotine. Here is the method:
Determination of Dopamine Release
Dopamine release was measured using the techniques described in U.S. Pat. No. 5,597,919 to Dull et al. Release is expressed as a percentage of release obtained with a concentration of (S)-(−)-nicotine resulting in maximal effects. Reported EC50 values are expressed in nM, and Emax values represent the amount released relative to (S)-(−)-nicotine on a percentage basis.

For the next assay, the system named is Rat brain synaptosomes. Briefly: Neurotransmitter release from brain synaptosomes. Particulars: 10 μM ligand; percentage of release with 10 μM (S)-(-)-nicotine or 300 μM TMA. As for the experimental part:
Neurotransmitter Release From Brain Synaptosomes
Neurotransmitter release was measured using techniques similar to those previously published (Bencherif M, et al . . . JPET279: 1413-1421, 1996).
Rat brain synaptosomes were prepared as follows: Female Sprague Dawley rats (100-200 g) were killed by decapitation after anesthesia with 70% CO2. Brains are dissected, and hippocampus, striatum, and thalamus isolated, and homogenized in 0.32 M sucrose containing 5 mM HEPES pH 7.4 using a glass/glass homogenizer. The tissue was then centrifuged for 1000×g for 10 minutes and the pellet discarded. The supernatant was centrifuged at 12000×g for 20 minutes. The resultant pellet was re-suspended in perfusion buffer (128 mM NaCl, 1.2 mM KH2PO4, 2.4 mM KCl, 3.2 mM CaCl2, 1.2 mM MgSO4, 25 mM HEPES, 1 mM Ascorbic acid, 0.01 mM pargyline HCl and 10 mM glucose pH 7.4) and centrifuged for 15 minutes at 25000×g. The final pellet was resuspended in perfusion buffer and placed in a water bath (37° C.) for 10 minutes. Radiolabeled neurotransmitter is added (30 μL ^3H DA, 20 μL ^3H NE, 10 μL ^3H glutamate) to achieve a final concentration of 100 nM, vortexed and placed in a water bath for additional 10 minutes. Tissue-loaded filters is placed onto 11-mm diameter Gelman A/E filters on an open-air support. After a 10-minute wash period, fractions are collected to establish the basal release and agonist applied in the perfusion stream. Further fractions were collected after agonist application to re-establish the baseline. The perfusate was collected directly into scintillation vials and released radioactivity was quantified using conventional liquid scintillation techniques. Release of neurotransmitter was determined in the presence of 10μM of various ligands and was expressed as a percentage of release obtained with a concentration of 10 μM (S)-(−)-nicotine or 300 μM TMA resulting in maximal effects.

For another assay, the system named is rubidium ion flux. Briefly: Determination of rubidium ion release (rubidium ion flux assay). Particulars: rubidium ion released relative to 300 uM tetramethylammonium ion. As for the experimental part: Determination of Rubidium Ion Release
Rubidium release was measured using the techniques described in Bencherif et al., JPET, 279: 1413-1421 (1996). Reported EC50 values are expressed in nM, and Ema, values represent the amount of rubidium ion released relative to 300 uM tetramethylammonium ion, on a percentage basis.

Regarding `CNCC/C=C/c1cncc(C(=O)NCc2ccccc2)c1` [Sample No. 2, (3E)-N-methyl-N-[3-(5-(N-benzylcarboxamido)pyridin)yl]-3-buten-1-amine], in the assay on dopamine release, the “Emax for dopamine release” value is 12%.

As to `CN[C@@H](C)C/C=C/c1cc(OC(C)C)c[n+]([O-])c1` [Sample No. 5], in the assay on Rat brain synaptosomes, the “neurotransmitter release Emax” value is recorded as 19%.

Turning to `CNCC/C=C/c1cncc(OCC(C)C)c1` [Sample No. 6, (3E)-N-methyl-4-(3-(5-isobutoxypyridin)yl)-3-buten-1-amine hemigalactarate], the “Emax for dopamine release” value in the assay with dopamine release was 25%. In the assay on rubidium ion flux, the “Emax in the rubidium ion flux assay” value was 15%.

For `CNC(C)CC=Cc1ccc[n+]([O-])c1` (centres unmarked) [Sample No. 8, (4E)-N-methyl-5-(3-(1-oxopyridin)yl)-4-penten-2-amine], in the assay with Rat brain synaptosomes, the “neurotransmitter release Emax” value came out at 9%.

`CCSc1cncc(/C=C/CCNC)c1` [Sample No. 9, (3 E)-N-methyl-4-(3-(5-ethylthiopyridin)yl)-3-buten-1-amine hemigalactarate]: the “Emax for dopamine release” value in the assay with dopamine release was 39%. For the same molecule, the “Emax in the rubidium ion flux assay” value in the assay on rubidium ion flux is 40%.

In the case of `CNC(C)CC=Cc1cncc(C(F)(F)F)c1` (centres unmarked) [Sample No. 10, (4E)-N-methyl-5-(3-(5-trifluoromethylpyridin)yl)-4-penten-2-amine], the “neurotransmitter release Emax” value in the assay on Rat brain synaptosomes turned out to be 50%. Further, the “Emax in the rubidium ion flux assay” value with rubidium ion flux was 0%.

On to `CC(N)CC=Cc1cncc(OC(C)C)c1` (centres unmarked) [Sample No. 12, (4E)-5-(3-(5-isopropoxypyridin)yl)-4-penten-2-amine hemigalactarate], for which the “neurotransmitter release Emax” value with Rat brain synaptosomes worked out at 32%.

For the molecule `CNC(C)CC=Cc1cncc(O)c1` (centres unmarked) [Sample No. 13, (4E)-N-methyl-5-(3-(5-hydroxypyridin)yl)-4-penten-2-amine sesquioxalate], the “neurotransmitter release Emax” value in the assay with Rat brain synaptosomes was determined as 80%.
